Values after ≈ are worked out from the molar mass of the structure shown. Read-outs that look alike come from different tables or passages of the source.
Experiments:
Type in all cases: cell-based
S. aureus ATCC 29213 = assay: microbe, parasite or virus in culture; details: 90 min incubation at 37°C, plated on LB agar 12–24 h, lowest concentration giving less than one CFU (≥99.9% reduction), mean ± SD, at least three biological repeats
Protocol: (§1) For the antimicrobial peptide assays, a 10 mL starter culture was produced by taking single colonies from LB agar plates to inoculate in Lysogeny/Luria Broth (1% w/v Oxoid Tryptone, 0.5% w/v NaCl, 0.5% w/v Oxoid Yeast Extract, pH 7.0, Thermo Scientific Pty, Ltd., Sydney, Australia) for bacteria; S. aureus ATCC 29213 and E. coli ATCC 8739 were grown aerobically at 37°C in an orbital shaker (Minitron, Infors HT) at 200 rpm. After overnight incubation, 0.5–1.0 mL of the starter culture was used to inoculate fresh LB broth (20 mL), and its growth was monitored at 600 nm using a spectrophotometer (model Varian Cary 50 Bio UV-Vis). Bacteria were harvested during the late exponential growth phase, and CFUs/mL were determined using the growth curve data set that correlated OD600 to CFUs/mL.
(§2) Antibacterial assays were undertaken to determine the minimum inhibitory concentration (MIC), the minimum bactericidal concentration (MBC), and the level of membrane disruption of each of the antimicrobial peptides (AMPs) and multimerized AMPs. […] After the 90-min incubation period, the antimicrobial activity (MIC and MBC) was determined as follows:
(§3) The CLSI protocol was followed to determine MBC. After incubation, bacteria were serially diluted (1:10) in PBS, plated on LB agar, and incubated for 12–24 h at 37°C; then, the CFUs were quantified. […]

E. coli ATCC 8739 [1] = details: cation-adjusted MHB, 1 × 10^5 cells/well, 90 min incubation with peptide at 37°C, then growth monitored 20 h at OD630, Lambert and Pearson analysis, mean ± SD, at least three biological repeats
Protocol: as §1
Antibacterial assays were undertaken to determine the minimum inhibitory concentration (MIC), the minimum bactericidal concentration (MBC), and the level of membrane disruption of each of the antimicrobial peptides (AMPs) and multimerized AMPs. For each bacterium, a stock solution (2 × 10^6 cells/mL) in cation-adjusted Mueller Hinton Broth (MHB) was made, and an aliquot was incubated with AMPs within 15 min from viable cell count and stock preparation. […] After the 90-min incubation period, the antimicrobial activity (MIC and MBC) was determined as follows: […]

E. coli ATCC 8739 [2] = details: cation-adjusted MHB, 90 min incubation at 37°C, plated on LB agar 12–24 h, lowest concentration giving less than one CFU (≥99.9% reduction), mean ± SD, at least three biological repeats
Protocol: as §1, §2, §3

H4IIE cells [3] = assay: Cytotoxicity (cell lysis), LDH release assay; details: for TI (cell lysis): H4IIE, LD50/MBC50
Protocol: (§4) To determine toxicity toward mammalian cells, 1 × 10^4 cells/well of HEK-293 (ATCC CRL-1573TM) or H4IIE in a total volume of […] in media (Eagle’s Minimum Essential Medium (EMEM) supplemented with 10% v/v fetal bovine serum, 5% v/v L-glutamine and 5% v/v penicillin/streptomycin) were seeded into 96-well plates and cultured at 37°C in a 5% CO2 incubator for 16–20 h. When cells were ≥90% confluent, the 100 µL media was removed and replaced with 50 μL serial dilutions of the AMP in media (final concentration 20–0.5 μM) and cultured at 37°C in a 5% CO2 incubator for 90 min. From each well, 50 µL was transferred to a new plate. To the 50 μL, 50 µL of lactate dehydrogenase (LDH) solution (CytoTox 96® Non-Radioactive Cytotoxicity Assay kit, Promega) was added to each well and incubated for a further 30 min at room temperature and protected from light. Cell death was determined by measuring absorbance at 490 nm using a microplate reader (PerkinElmer 1,420 Multilabel Counter VICTOR3). Positive and negative controls for inhibition were taken as cells incubated with lysis solution (CytoTox 96® Non-Radioactive Cytotoxicity Assay kit, Promega) and cells incubated in media alone, respectively. The background absorbance of media alone was subtracted from the sample absorbance, and the percentage of inhibition was calculated using the following formula: % Cytotoxicity=A490 test sample−A490 negative control/A490 positive control−A490 negative control×100.
(§5) The percentage of lysis was plotted against peptide concentration, and linear regression analysis was used to determine the AMP concentration needed to lyse 50% (LD50) of the cells.

[4] = tested on: HEK-293 (ATCC CRL-1573) cells; assay: Cytotoxicity (cell lysis), LDH release assay; details: for TI (cell lysis): HEK293, LD50/MBC50
Protocol: as §4, §5

H4IIE cells [5] = assay: Inhibition of cell proliferation, MTS assay; details: for TI (cell proliferation): H4IIE, IC50/MIC50
Protocol: (§6) To determine the inhibition of cell proliferation, 20 μL of 3-(4,5-dimethylthiazol-2-yl)-5-(3-carboxymethoxyphenyl)-2-(4-sulfophenyl)-2H-tetrazolium (MTS) solution (CellTiter 96 AQueous Non-Radioactive Cell Proliferation Assay kit, Promega) was added to the remaining 100 µL from the toxicity assay, and the plates were incubated for a further 1 h at 37°C in a 5% CO2 incubator protected from light. Cell proliferation was determined by measuring absorbance at 490 nm using a microplate reader (PerkinElmer 1,420 Multilabel Counter VICTOR3). Positive and negative controls for inhibition were taken as cells incubated with lysis solution (CytoTox 96® Non-Radioactive Cytotoxicity Assay kit, Promega) and cells incubated in media alone, respectively. The background absorbance of media alone was subtracted from the samples, and the percentage of inhibition was calculated using the following formula: % Inhibition=A490 test sample−A490 negative control/A490 positive control−A490 negative control×100.
(§7) The percentage of inhibition was plotted against peptide concentration, and linear regression analysis was used to determine the AMP concentration needed to inhibit 50% (IC50) of cell growth.

[6] = tested on: HEK-293 (ATCC CRL-1573) cells; assay: Inhibition of cell proliferation, MTS assay; details: for TI (cell proliferation): HEK293, IC50/MIC50
Protocol: as §6, §7

[7] = tested on: Chicken red blood cells (RBCs); assay: Hemolysis assay
Protocol: Chicken red blood cells (RBCs) in Alsever’s solution (RBCs, Equicell, Victoria, Australia) were diluted 1 in 20 in PBS (pH 7.4), pelleted by centrifugation, and washed three times in PBS (1,000 g, 10 min). The RBCs were counted using a cell counter (Coulter Particle Counter Z series, Beckman Coulter) and diluted to a final concentration of 2 × 10^7 cells/mL. Aliquots (100 μL) of the RBC solution were seeded into a V-bottomed 96-well plate containing 100 μL of serial dilutions (10–0.08 μM) of the AMP in PBS and incubated in a humidified atmosphere containing 5% CO2 at 37°C for 2 h. Following incubation, the RBCs were pelleted in a centrifuge (1,000 g, 10 min), and the amount of hemoglobin released in 100 μL aliquots of the supernatant was determined by measuring the absorbance at 405 nm using a microplate reader (PerkinElmer 1,420 Multilabel Counter VICTOR3). Positive and negative controls for hemolysis were taken as RBC lysed with 1% v/v Triton X-100 and RBC suspension in PBS, respectively. The percentage of hemolysis was calculated using the following formula: % Hemolysis A405 test sample−A405 negative control / A405 positive control−A405 negative controlx 100.
The percentage hemolysis was plotted against peptide concentration, and linear regression analysis was used to determine the hemolytic concentration needed to lyse 50% (HC50) of RBCs.

Row | Compound | MBC (S. aureus ATCC 29213; cation-adjusted MHB) [µM] | MIC (E. coli ATCC 8739 [1]) [µM] | MBC (E. coli ATCC 8739 [2]) [µM] | LD50 (H4IIE cells [3]; H4IIE cells, LDH release, 90 min exposure at 37°C, 20–0.5 μM, concentration lysing 50% of cells by linear regression, mean ± SD, at least three biological repeats) [µM] | TI (cell lysis) (H4IIE cells [3]; MBC50 toward S. aureus 29213) | TI (cell lysis) (H4IIE cells [3]; MBC50 towards E. coli 8729) | TI (cell lysis) ([4]; MBC50 toward S. aureus 29213) | TI (cell lysis) ([4]; MBC50 towards E. coli 8729) | LD50 ([4]; HEK293 cells, LDH release, 90 min exposure at 37°C, 20–0.5 μM, concentration lysing 50% of cells by linear regression, mean ± SD, at least three biological repeats) [µM] | IC50 (H4IIE cells [5]; H4IIE cells, MTS proliferation assay after 90 min exposure, 1 h MTS, linear regression, mean ± SD, at least three biological repeats) [µM] | TI (cell proliferation) (H4IIE cells [5]; MIC50 toward S. aureus 29213) | TI (cell proliferation) (H4IIE cells [5]; MIC50 towards E. coli 8729) | TI (cell proliferation) ([6]; MIC50 toward S. aureus 29213) | TI (cell proliferation) ([6]; MIC50 towards E. coli 8729) | IC50 ([6]; HEK293 cells, MTS proliferation assay after 90 min exposure, 1 h MTS, linear regression, mean ± SD, at least three biological repeats) [µM] | HC50 ([7]; chicken RBCs in PBS pH 7.4, 2 × 10^7 cells/mL stock, 10–0.08 μM, 2 h at 37°C, absorbance 405 nm, 1% Triton X-100 positive control, mean ± SD, at least three biological repeats) [µM] | TI (hemolysis) ([7]; chicken RBCs, HC50/MBC50, MBC50 toward S. aureus 29213) | TI (haemolysis) ([7]; chicken RBCs, HC50/MBC50, MBC50 towards E. coli 8729) | MBC (S. aureus ATCC 29213; Staphylococcus aureus, ATCC29213, cation-adjusted MHB, read-out: MBC) [µM]
1 | CC[C@H](C)[C@H](NC(=O)CN)C(=O)NCC(=O)N[C@@H](C)C(=O)N[C@H](C(=O)N[C@@H](CC(C)C)C(=O)N[C@@H](CCCCN)C(=O)N[C@H](C(=O)N[C@@H](CC(C)C)C(=O)N[C@H](C(=O)N[C@H](C(=O)NCC(=O)N[C@@H](CC(C)C)C(=O)N1CCC[C@H]1C(=O)N[C@@H](C)C(=O)N[C@@H](CC(C)C)C(=O)N[C@H](C(=O)N[C@@H](CO)C(=O)N[C@@H](Cc1c[nH]c2ccccc12)C(=O)N[C@H](C(=O)N[C@@H](CCCCN)C(=O)N[C@@H](CCCNC(=N)N)C(=O)N[C@@H](CCCCN)C(=O)N[C@@H](CCCNC(=N)N)C(=O)N[C@@H](CCC(N)=O)C(=O)N[C@@H](CCC(N)=O)C(N)=O)[C@@H](C)CC)[C@@H](C)CC)[C@@H](C)O)[C@@H](C)O)C(C)C)C(C)C [1. Melittin, Melittin] | 1.76 ± 0.76 (≈ 5.01 µg/mL) | 6.89 ± 0.72 (≈ 19.6 µg/mL) | 8.67 ± 0.93 (≈ 24.7 µg/mL) | 1.79 ± 0.95 | 2.05 | 0.41 | 0.85 | 0.17 | 0.75 ± 0.21 | 2.88 ± 0.08 | 4.01 | 0.76 | 13.18 | 2.49 | 9.47 ± 3.63 | 0.59 ± 0.04 | 0.67 | 0.14 | 
2 | Gentamycin |  | 2.27 ± 0.33 | 3.3 ± 0.78 |  |  |  |  |  |  |  |  |  |  |  |  |  |  |  | 
3 | CN[C@H](CC(C)C)C(=O)N[C@H]1C(=O)N[C@@H](CC(N)=O)C(=O)N[C@H]2C(=O)N[C@H]3C(=O)N[C@H](C(=O)N[C@H](C(=O)O)c4cc(O)cc(O)c4-c4cc3ccc4O)[C@H](O)c3ccc(c(Cl)c3)Oc3cc2cc(c3O[C@@H]2O[C@H](CO)[C@@H](O)[C@H](O)[C@H]2O[C@H]2C[C@](C)(N)[C@H](O)[C@H](C)O2)Oc2ccc(cc2Cl)[C@H]1O [Vancomycin] |  |  |  |  |  |  |  |  |  |  |  |  |  |  |  |  |  |  | 1.61 ± 0.44 (≈ 2.33 µg/mL)

Reference: paper PMC11492869, “Dimerization and lysine substitution of melittin have differing effects on bacteria” (Frontiers in Pharmacology, 2024)
